In a melting point compilation (Tetko et al.; mined from patent text by program, amines drawn as free bases though some values may be those of a salt):

For COc1cc2c(cc1Cl)CC(=O)NN=C2c1ccc(N)cc1, the melting point was 234 to 236 °C. In the case of CCSC1OC(CO)C(OC2OC(CO)C(O)C(O)C2O)C(O)C1O (stereo not given), the melting point is reported as 191 to 192 °C. Work on CCC(CC)c1ccc(Cl)c2nc(Nc3cc(Cl)cc(Cl)c3)n(CCCCO)c12 yielded a melting point of 208 to 210 °C. For CC1=Nc2ccccc2CC(c2cccnc2)N1C (stereo not given), the melting point was 145 to 148 °C. With Cn1cnc(S(=O)(=O)Nc2cccc(C=C3c4ccccc4CCc4ccccc43)c2)c1 the melting point was 257 °C. Molecule ON=c1cc(-c2cc3cccn3cn2)oc2ccc(OCCCOc3cccnc3)cc12 has a melting point of 202 to 205 °C. CC(C)COC(=O)Nc1ccc(C2(O)CCSCC2)cc1 showed a melting point of 150 to 151 °C. Nc1ccc(C(=O)N2CCN(NC(=O)c3ccc(F)cc3)CC2)cc1 showed a melting point of 209 °C. Work on COc1ccc(CC2SC(=O)NC2=O)cc1C(=O)NCc1ccc([N+](=O)[O-])cc1 (stereo not given) yielded a melting point of 236 to 238 °C. Work on CN(Cc1cc2c(-c3ccccc3)c(CC(=O)Nc3ccc(Cl)cc3C(F)(F)F)c(=O)oc2cc1Cl)C(=O)c1ccccc1 yielded a melting point of 215 to 216 °C. Molecule CC(C)n1nnnc1CCCn1ccc2cc(NC(=O)c3nc4ccc(Cl)cc4n3Cc3ccccc3)ccc21 has a melting point of 190 to 191 °C. In the case of CNC(=S)NS(=O)(=O)c1cc(CCNC(=O)/C=C/c2cccs2)ccc1OCCOC(F)(F)F, the melting point is reported as 161 to 163 °C. For Cc1ccc(OC(=O)CCC(=O)OOC(C)(C)C)cc1, the melting point was 72 to 77 °C. With Cc1cc(Cn2nnc(C(N)=O)c2N)cc(Cl)c1C(=O)c1ccc(C(F)(F)F)cc1 the melting point was 201 to 202 °C. COc1cccc2c1C(=CC(=O)c1ccccc1)OC2=O showed a melting point of 165 °C. CC(C)(C)n1ncc(OCc2ccc(Oc3ccc(Cl)cc3)nc2)c(Cl)c1=O showed a melting point of 150 to 154 °C. Work on N#Cc1ccc(N2C(=O)C3=CCCN3C2=O)c2ccccc12 yielded a melting point of 230 to 232 °C. OCc1cc(F)c(CO)cc1F showed a melting point of 268 to 271 °C. In the case of Cc1cc(Oc2ccccc2)c(NC(=O)OCc2ccccc2)c(=O)n1CC(=O)O, the melting point is reported as 108 to 110 °C. With Cc1ccc(-c2cn(C)cc(-c3ccccc3)c2=O)c(C)c1 the melting point was 153 to 155 °C. CC(C)(C(=O)O)S(=O)c1ccc2c(-c3ccc(Cl)cc3)noc2c1 (stereo not given) showed a melting point of 184 to 185 °C. For CNC(=O)NS(=O)(=O)c1cc2c(cc1OC)OCCC2CNC(=O)c1cc(Cl)ccc1OC (single isomer, unassigned; (+)), the melting point was 147 to 148 °C. For CC(C)CN(CCCc1ccc(F)cc1)[C@H]1CC[C@H](c2ccc3[nH]c(=O)oc3c2)CC1, the melting point was 199 to 201 °C. For NC(=O)c1nc2cc(F)c([N+](=O)[O-])cc2[nH]c1=O, the melting point was > 300 °C. With COC(=O)CCc1ccc(-n2ncn(-c3ccc(C#N)cc3)c2=O)cc1 the melting point was 213 to 215 °C. Molecule Cc1c(CCCl)c(=O)oc2cc(O)cc(O)c12 has a melting point of 218 to 220 °C. Molecule CSC(=NC#N)NCCCOc1cccc(CN2CCCC2)c1 has a melting point of 107 to 108 °C. With COc1ccc(-c2cccc3ccccc23)cc1OC1CCCC1 the melting point was 123 to 125 °C. CC(C)(C)c1ncc(O)c(Cl)n1 showed a melting point of 108 °C. In the case of COc1ccc2c(C(=O)c3ccc(OC4CCCCC4N4CCCCCC4)cc3)c(-c3ccc(OCCN4CCCC4)cc3)sc2c1 (stereo not given), the melting point is reported as 43.5 to 51.5 °C. Work on CCOC(=O)c1cccc(C(=O)CC)c1OCCN(CC)CC yielded a melting point of 103 to 105 °C. For C#CC(C)Oc1cc(-c2nn3c(c2Cl)CCCC3)c(F)cc1Cl (stereo not given), the melting point was 116 to 120 °C. In the case of COC(C)(C)O[C@H]1C(=O)N[C@H]1c1ccccc1, the melting point is reported as 136 to 137 °C. CCC1(C)CC(NC(=O)c2cccc([N+](=O)[O-])c2O)CC(C)(C)C1 (stereo not given) showed a melting point of 125 to 128 °C. For CCNC(=O)Nc1nc2cc(-c3ccc(OC)nc3)ccn2n1, the melting point was 230 to 233 °C. With CCc1nn(C(=O)CCCN2CCOCC2)c(CC)c1CCCCCCOc1ccc(OC)cc1Cl the melting point was 93 to 95 °C. Work on CC1CCCCN1C(=O)C=Cc1ccc(C(F)(F)F)cc1 (stereo not given) yielded a melting point of 88 to 89 °C. Molecule N#Cc1ccccc1Sc1nsc2ccccc12 has a melting point of 116 to 117 °C. For CC(=O)OC(C(=O)N1C(Cc2ccccc2)COC1(C)C)c1ccc(-c2ccc(-c3ccccc3)cc2)o1 (stereo not given), the melting point was 120 to 128 °C. Molecule COc1ccc(CNc2nc(N)nc3c2ncn3C2CC(F)C(CO)O2)cc1 (stereo not given) has a melting point of 194 to 195 °C. Molecule O=C(NC(c1ccccc1)c1ccccc1)N1CCC(c2ccccc2)(c2ccccc2)CC1 has a melting point of 232 to 234 °C. In the case of O=C(O)c1ccnc(Br)c1, the melting point is reported as 214 °C. Cc1ccc(C)c(C2C(=O)Oc3c2cc(C(C)(C)C)cc3C(C)(C)C)c1 (stereo not given) gave a melting point of 93 to 97 °C. Molecule CCN(CC)CCc1cccc(Nc2ncc3c(n2)N(c2cccc(C#N)c2)C(=O)N(c2ccc(OC)cc2)C3C)c1 (stereo not given) has a melting point of 128 to 145 °C. Work on N=C(N)Nc1nc(CSCCNc2[nH]ccc2[N+](=O)[O-])cs1 yielded a melting point of 196 to 200 °C. With CN1CCN(c2cc3c(F)cccc3c(=O)[nH]2)CC1CO (stereo not given) the melting point was 216 to 217 °C. Work on COc1cc(O)ccc1/C=C/C(=O)CC(=O)/C=C/c1cc(OCc2ccccc2)ccc1-c1ccccc1 yielded a melting point of 175 to 180 °C. For O=[N+]([O-])c1ccc(Cl)nc1N1CCNCC1, the melting point was 50 to 53 °C. In the case of CC1(c2ccccc2)OC(C(=O)O)Oc2ccccc21 (stereo not given), the melting point is reported as 153 °C. Nc1sc2c(c1C(=O)c1ccc3ccccc3c1)CCC(Cc1ccc([N+](=O)[O-])cc1)C2 (stereo not given) gave a melting point of 76 to 78 °C. For CSc1cccc2nc3sccn3c(=O)c12, the melting point was 186 to 189 °C. COc1ccc(/C=C/C(=O)CC(=O)/C=C/c2ccc(O)cc2)cc1O gave a melting point of 207 to 210 °C. For O=C(CCl)Nc1ccc(Cl)cc1C(=O)O, the melting point was 188 °C. Molecule CS(=O)c1ccc(C2=C(c3cc(F)cc(F)c3)C(=O)C(C)(C)O2)cc1 (stereo not given) has a melting point of 133 to 134 °C. Molecule N#Cc1ccc(-c2ccc(C#N)c(Cn3cncn3)c2)cc1 has a melting point of 222 to 223 °C. In the case of COc1ccc2cc(C(C)C(=O)OCC(=O)NCCCO[N+](=O)[O-])ccc2c1 (stereo not given), the melting point is reported as 51 to 53 °C. With COc1ccc2c(n1)C1(CO2)C(=O)N(Cc2ccc(Cl)s2)c2ccccc21 (stereo not given) the melting point was 130 to 132 °C. O=C(O)C1OCc2ccccc2O1 (stereo not given) showed a melting point of 88 °C. With O=C1N(C(c2ccccc2)c2ccccc2)c2ccccc2C1(O)c1cc2c(cc1O)OCCO2 (stereo not given) the melting point was 210 to 212 °C. For COc1c(/C=C/c2cc(/C=C/c3ccc4cc[nH]c4c3)n[nH]2)cccc1OCc1ccccn1, the melting point was 109 to 114 °C. COc1ccc2oc(C(=O)CBr)cc2c1 gave a melting point of 86 to 87 °C. For COc1ccc2[nH]cc(C#N)c2c1, the melting point was 147 °C. O=C(CSc1ccccc1)Nc1c(Cl)ccc2nc(N3CC[C@@H](O)C3)ccc12 showed a melting point of 246 to 249 °C. CC(=O)C(C)(C)Nc1nc(N)nc(O)c1[N+](=O)[O-] gave a melting point of 289 °C. CCn1c(=O)c(-c2ccsc2)cc2cnc(Nc3ccccc3)nc21 gave a melting point of 223 to 225 °C. Molecule CC(C)CC(=O)N[C@@H](CC(C)C)C(=O)N[C@@H](Cc1ccccc1)C(=O)CSCc1ccco1 has a melting point of 108 to 115 °C. With O=[N+]([O-])c1ccc2sc(-c3cccnc3)nc2c1 the melting point was 196 to 198 °C. CCCCCNC(=O)[C@H](Cc1ccc(OCC(=O)O)c(-c2cc(O)no2)c1)NC(=O)[C@H](Cc1ccccc1)NC(=O)OC(C)(C)C showed a melting point of 122 to 123 °C. CCOC(=O)COc1c(OC2CCCCO2)cccc1[N+](=O)[O-] (stereo not given) showed a melting point of 49 to 50 °C. CCn1ncc2c1ncc1c(NCCN(C)C)nc3cc(C)nn3c12 showed a melting point of 124 to 126 °C.
